From ChEMBL document CHEMBL1687783, “Prevalence and dissemination of oqxAB in Escherichia coli isolates from animals, farmworkers, and the environment” (2010)
Converted amounts (≈) assume the structure as drawn.

Columns and labels:
Escherichia coli [1] = assay: Antimicrobial activity against oqxAB positive Escherichia coli C600 XT11-T transconjugant by CLSI agar dilution method
Escherichia coli [2] = assay: Antimicrobial activity against oqxAB positive Escherichia coli C600 W281-T transconjugant by CLSI agar dilution method
Escherichia coli [3] = assay: Antimicrobial activity against Escherichia coli C600 by CLSI agar dilution method
Escherichia coli [4] = assay: Antimicrobial activity against oqxAB positive Escherichia coli C600 W245-T transconjugant by CLSI agar dilution method; format: functional
Escherichia coli [5] = assay: Antimicrobial activity against oqxAB positive Escherichia coli C600 D83-T transconjugant by CLSI agar dilution method; format: functional
Escherichia coli [6] = assay: Antimicrobial activity against oqxAB positive Escherichia coli C600 X1B1-T transconjugant by CLSI agar dilution method
Escherichia coli [7] = assay: Antimicrobial activity against oqxAB positive Escherichia coli C600 SW8-T transconjugant by CLSI agar dilution method; format: functional
Escherichia coli [8] = assay: Antimicrobial activity against oqxAB positive Escherichia coli C600 G062-T transconjugant by CLSI agar dilution method
Escherichia coli [9] = assay: Antimicrobial activity against oqxAB positive Escherichia coli C600 G262-T transconjugant by CLSI agar dilution method
Escherichia coli [10] = assay: Antimicrobial activity against oqxAB positive Escherichia coli C600 W191-T transconjugant by CLSI agar dilution method; format: functional
Escherichia coli [11] = assay: Antimicrobial activity against oqxAB positive Escherichia coli C600 G375-T transconjugant by CLSI agar dilution method; format: functional
Escherichia coli [12] = assay: Antimicrobial activity against Escherichia coli DH5[alpha] by CLSI agar dilution method
Escherichia coli [13] = assay: Antimicrobial activity against oqxAB positive Escherichia coli C600 W322-T transconjugant by CLSI agar dilution method; format: functional
Escherichia coli [14] = assay: Antimicrobial activity against Escherichia coli C600 ST2-T transconjugant harboring oqxAB, qnrB6 and aac(6')-Ib-cr genes by CLSI agar dilution method; format: functional
Escherichia coli [15] = assay: Antimicrobial activity against oqxAB positive Escherichia coli C600 SP8-T transconjugant by CLSI agar dilution method; format: functional
Escherichia coli [16] = assay: Antimicrobial activity against oqxAB positive Escherichia coli DH5[alpha] harboring pMD18-T::oqxAB by CLSI agar dilution method; format: functional

Compound	MIC (Escherichia coli [1])	MIC (Escherichia coli [2])	MIC (Escherichia coli [3])	MIC (Escherichia coli [4])	MIC (Escherichia coli [5])	MIC (Escherichia coli [6])	MIC (Escherichia coli [7])	MIC (Escherichia coli [8])	MIC (Escherichia coli [9])	MIC (Escherichia coli [10])	MIC (Escherichia coli [11])	MIC (Escherichia coli [12])	MIC (Escherichia coli [13])	MIC (Escherichia coli [14])	MIC (Escherichia coli [15])	MIC (Escherichia coli [16])
CC1(C)S[C@@H]2[C@H](NC(=O)[C@H](N)c3ccccc3)C(=O)N2[C@H]1C(=O)O [AMPICILLIN]	> 128 µg/mL	> 128 µg/mL	4 µg/mL (≈ 11.4 µM)	> 128 µg/mL	16 µg/mL (≈ 45.8 µM)	16 µg/mL (≈ 45.8 µM)	> 128 µg/mL	> 128 µg/mL	8 µg/mL (≈ 22.9 µM)	> 128 µg/mL	16 µg/mL (≈ 45.8 µM)	> 128 µg/mL	> 128 µg/mL	4 µg/mL (≈ 11.4 µM)	> 128 µg/mL	
O=C(N[C@H](CO)[C@H](O)c1ccc([N+](=O)[O-])cc1)C(Cl)Cl [CHLORAMPHENICOL]	128 µg/mL (≈ 396 µM)	128 µg/mL (≈ 396 µM)	4 µg/mL (≈ 12.4 µM)	64 µg/mL (≈ 198 µM)	32 µg/mL (≈ 99 µM)	128 µg/mL (≈ 396 µM)	128 µg/mL (≈ 396 µM)	32 µg/mL (≈ 99 µM)	128 µg/mL (≈ 396 µM)	128 µg/mL (≈ 396 µM)	32 µg/mL (≈ 99 µM)	4 µg/mL (≈ 12.4 µM)	64 µg/mL (≈ 198 µM)	32 µg/mL (≈ 99 µM)	64 µg/mL (≈ 198 µM)	64 µg/mL (≈ 198 µM)
CCN1CCN(c2cc3c(cc2F)c(=O)c(C(=O)O)cn3C2CC2)CC1 [ENROFLOXACIN]	0.06 µg/mL (≈ 0.167 µM)	0.06 µg/mL (≈ 0.167 µM)	0.016 µg/mL (≈ 0.0445 µM)	0.06 µg/mL (≈ 0.167 µM)	0.06 µg/mL (≈ 0.167 µM)	0.125 µg/mL (≈ 0.348 µM)	0.125 µg/mL (≈ 0.348 µM)	0.125 µg/mL (≈ 0.348 µM)	0.125 µg/mL (≈ 0.348 µM)	0.125 µg/mL (≈ 0.348 µM)	0.125 µg/mL (≈ 0.348 µM)	0.016 µg/mL (≈ 0.0445 µM)	0.125 µg/mL (≈ 0.348 µM)	2 µg/mL (≈ 5.56 µM)	0.06 µg/mL (≈ 0.167 µM)	0.125 µg/mL (≈ 0.348 µM)
CS(=O)(=O)c1ccc([C@@H](O)[C@@H](CF)NC(=O)C(Cl)Cl)cc1 [FLORFENICOL]	16 µg/mL (≈ 44.7 µM)	16 µg/mL (≈ 44.7 µM)	2 µg/mL (≈ 5.58 µM)	16 µg/mL (≈ 44.7 µM)	8 µg/mL (≈ 22.3 µM)	16 µg/mL (≈ 44.7 µM)	16 µg/mL (≈ 44.7 µM)	16 µg/mL (≈ 44.7 µM)	16 µg/mL (≈ 44.7 µM)	16 µg/mL (≈ 44.7 µM)	16 µg/mL (≈ 44.7 µM)	4 µg/mL (≈ 11.2 µM)	16 µg/mL (≈ 44.7 µM)	4 µg/mL (≈ 11.2 µM)	16 µg/mL (≈ 44.7 µM)	16 µg/mL (≈ 44.7 µM)
CC(=O)c1c(C)[n+]([O-])c2ccccc2[n+]1[O-] [MEQUINDOX]	128 µg/mL (≈ 587 µM)	64 µg/mL (≈ 293 µM)	4 µg/mL (≈ 18.3 µM)	128 µg/mL (≈ 587 µM)	128 µg/mL (≈ 587 µM)	64 µg/mL (≈ 293 µM)	256 µg/mL (≈ 1170 µM)	128 µg/mL (≈ 587 µM)	128 µg/mL (≈ 587 µM)	128 µg/mL (≈ 587 µM)	256 µg/mL (≈ 1170 µM)	4 µg/mL (≈ 18.3 µM)	256 µg/mL (≈ 1170 µM)	128 µg/mL (≈ 587 µM)	256 µg/mL (≈ 1170 µM)	64 µg/mL (≈ 293 µM)
CCn1cc(C(=O)O)c(=O)c2ccc(C)nc21 [NALIDIXIC ACID]	16 µg/mL (≈ 68.9 µM)	16 µg/mL (≈ 68.9 µM)	2 µg/mL (≈ 8.61 µM)	16 µg/mL (≈ 68.9 µM)	8 µg/mL (≈ 34.4 µM)	16 µg/mL (≈ 68.9 µM)	64 µg/mL (≈ 276 µM)	32 µg/mL (≈ 138 µM)	16 µg/mL (≈ 68.9 µM)	16 µg/mL (≈ 68.9 µM)	64 µg/mL (≈ 276 µM)	2 µg/mL (≈ 8.61 µM)	64 µg/mL (≈ 276 µM)	256 µg/mL (≈ 1100 µM)	32 µg/mL (≈ 138 µM)	32 µg/mL (≈ 138 µM)
CCn1cc(C(=O)O)c(=O)c2cc(F)c(N3CCNCC3)cc21 [NORFLOXACIN]	0.25 µg/mL (≈ 0.783 µM)	0.125 µg/mL (≈ 0.391 µM)	0.03 µg/mL (≈ 0.0939 µM)	0.125 µg/mL (≈ 0.391 µM)	0.125 µg/mL (≈ 0.391 µM)	0.125 µg/mL (≈ 0.391 µM)	0.5 µg/mL (≈ 1.57 µM)	0.125 µg/mL (≈ 0.391 µM)	0.25 µg/mL (≈ 0.783 µM)	0.125 µg/mL (≈ 0.391 µM)	0.25 µg/mL (≈ 0.783 µM)	0.03 µg/mL (≈ 0.0939 µM)	0.25 µg/mL (≈ 0.783 µM)	4 µg/mL (≈ 12.5 µM)	0.125 µg/mL (≈ 0.391 µM)	0.25 µg/mL (≈ 0.783 µM)
Cc1c(C(=O)NCCO)[n+]([O-])c2ccccc2[n+]1[O-] [OLAQUINDOX]	256 µg/mL (≈ 972 µM)	128 µg/mL (≈ 486 µM)	8 µg/mL (≈ 30.4 µM)	512 µg/mL (≈ 1940 µM)	256 µg/mL (≈ 972 µM)	256 µg/mL (≈ 972 µM)	512 µg/mL (≈ 1940 µM)	256 µg/mL (≈ 972 µM)	256 µg/mL (≈ 972 µM)	256 µg/mL (≈ 972 µM)	256 µg/mL (≈ 972 µM)	8 µg/mL (≈ 30.4 µM)	512 µg/mL (≈ 1940 µM)	512 µg/mL (≈ 1940 µM)	256 µg/mL (≈ 972 µM)	128 µg/mL (≈ 486 µM)
CN[C@@H]1[C@H](O[C@H]2[C@H](O[C@H]3[C@H](O)[C@@H](O)[C@H](N=C(N)N)[C@@H](O)[C@@H]3N=C(N)N)O[C@@H](C)[C@]2(O)C=O)O[C@@H](CO)[C@H](O)[C@H]1O [STREPTOMYCIN]	> 521 µg/mL	> 513 µg/mL	> 512 µg/mL	> 516 µg/mL	> 525 µg/mL	> 520 µg/mL	> 522 µg/mL	> 518 µg/mL	> 517 µg/mL	> 514 µg/mL	> 519 µg/mL	4 µg/mL (≈ 6.88 µM)	> 515 µg/mL	> 523 µg/mL	> 524 µg/mL	2 µg/mL (≈ 3.44 µM)
CN(C)[C@@H]1C(O)=C(C(N)=O)C(=O)[C@@]2(O)C(O)=C3C(=O)c4c(O)cccc4[C@@](C)(O)[C@H]3C[C@@H]12 [TETRACYCLINE]	64 µg/mL (≈ 144 µM)	2 µg/mL (≈ 4.5 µM)	1 µg/mL (≈ 2.25 µM)	1 µg/mL (≈ 2.25 µM)	4 µg/mL (≈ 9 µM)	32 µg/mL (≈ 72 µM)	1 µg/mL (≈ 2.25 µM)	4 µg/mL (≈ 9 µM)	32 µg/mL (≈ 72 µM)	64 µg/mL (≈ 144 µM)	4 µg/mL (≈ 9 µM)	2 µg/mL (≈ 4.5 µM)	1 µg/mL (≈ 2.25 µM)	2 µg/mL (≈ 4.5 µM)	2 µg/mL (≈ 4.5 µM)	4 µg/mL (≈ 9 µM)
GENTAMICIN				0.25 µg/mL	0.25 µg/mL		32 µg/mL			1 µg/mL	0.25 µg/mL		0.125 µg/mL	0.25 µg/mL	0.25 µg/mL	0.125 µg/mL
